Several values for one entry are separate records, joined by “and”; a condition that tells them apart may be missing. Identical values can stand only once.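 Protocol summary: plate cells (96-well), add compound at 5 concentrations, incubate 48 h, interpolate endpoints linearly. The concentration for 50% growth inhibition is given as GI50. TGI: total growth inhibition.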
What was measured:
Experiment in all cases: NCI tumour cell line growth inhibition, 48 h
786-0 renal = test system: 786-0 renal
UACC-257 melanoma = test system: UACC-257 melanoma
SNB-75 CNS = test system: SNB-75 CNS
RXF 393 renal = test system: RXF 393 renal
T-47D breast = test system: T-47D breast
NCI-H460 lung = test system: NCI-H460 lung
RPMI-8226 leukemia = test system: RPMI-8226 leukemia
EKVX NSCLC = test system: EKVX NSCLC
DMS 114 small cell lung = test system: DMS 114 small cell lung
DMS 273 small cell lung = test system: DMS 273 small cell lung
KM20L2 colon = test system: KM20L2 colon

| SMILES | GI50 (786-0 renal) | TGI (786-0 renal) | GI50 (UACC-257 melanoma) | TGI (UACC-257 melanoma) | GI50 (SNB-75 CNS) [µM] | TGI (SNB-75 CNS) | GI50 (RXF 393 renal) [µM] | TGI (RXF 393 renal) | GI50 (T-47D breast) [µM] | TGI (T-47D breast) | GI50 (NCI-H460 lung) [µM] | TGI (NCI-H460 lung) | GI50 (RPMI-8226 leukemia) [µM] | TGI (RPMI-8226 leukemia) | GI50 (EKVX NSCLC) [µM] | TGI (EKVX NSCLC) [µM] | TGI (DMS 114 small cell lung) [µM] | TGI (DMS 273 small cell lung) [µM] | TGI (KM20L2 colon) [µM] | GI50 (KM20L2 colon) [µM] |
| --- | --- | --- | --- | --- | --- | --- | --- | --- | --- | --- | --- | --- | --- | --- | --- | --- | --- | --- | --- | --- |
| Cc1ccc(C(SCC(N)C(=O)O)(c2ccccc2)c2ccccc2)cc1 (stereo unspecified) | 0.175 µM | 2.43 µM | 22.8 µM | > 100 µM | 0.128 | 58.3 µM | 0.103 | > 100 µM | 0.123 | > 77.7 µM | 0.0718 | 14.8 µM | 0.0385 | > 100 µM | 0.21 | > 100 |  |  |  |  |
| N#Cc1c(N)nc(N)nc1N[C@H](c1nc2c(F)ccc(Cl)c2c(=O)n1-c1cccnc1)C1CC1 | 0.363 µM | 14.5 µM | 8.18 µM | > 100 µM | 0.171 | 6.9 µM | 0.32 | 3.46 µM | 1.19 | 7.96 µM | 4.95 | > 100 µM | 19 | 46.4 µM | 1.88 | 37.2 |  |  |  |  |
| CN1CCN(c2nc(NCCCNc3ccnc4cc(Cl)ccc34)c3ccccc3n2)CC1 | 3.58 µM | 12.9 µM | 2.02 µM | 3.83 µM | 5.45 | 20.7 µM | 1.49 | 3.72 µM | 2.39 | 6.73 µM | 3.53 | 13.4 µM | 1.8 | 7.69 µM | 11.4 | 25.3 |  |  |  |  |
| Cc1ccc(C2=C(c3ccc(C)cc3)C3(c4ccc(C)cc4)C4C(=O)c5ccccc5C(=O)C4C2(c2ccc(C)cc2)S3=O)cc1 (stereo unspecified) | 69.5 µM | > 100 µM | > 100 µM | > 100 µM | 9.93 | 31 µM | 94.4 | > 100 µM | 72.4 | > 100 µM | > 100 | > 100 µM | > 100 | > 100 µM | > 100 | > 100 |  |  |  |  |
| CC(C)n1nc(-c2ccc3oc(N)nc3c2)c2c(N)ncnc21 | 0.0146 µM and 0.0266 µM | 0.4 µM and 1.41 µM | < 0.0123 µM and 0.0137 µM | 0.145 µM and 0.121 µM | < 0.01 | 0.0532 µM and 0.0211 µM | < 0.01 | 0.043 µM and 0.0533 µM | < 0.01 | 0.016 µM and 0.0155 µM | < 0.01 | 36.3 µM and 16.8 µM | < 0.01 | 1.1 µM and 3.68 µM | 0.0159 | 0.225 |  |  |  |  |
| CC1C[C@]2(C[C@@H](C)C(=O)O2)O[C@@H]2CC3(C)[C@@H]4CCC5C(C)(C)OC(=O)C[C@H]6OO[C@]4(CC[C@]3(C)C12)CC56O (stereo partly specified) |  | > 100 µM |  | > 100 µM |  | > 100 µM |  | > 100 µM |  |  |  | > 100 µM |  | > 100 µM |  |  | > 100 | > 100 |  |  |
| CCOC(=O)[C@H]1Nc2ccc([N+](=O)[O-])cc2C2c3ccccc3CC21 (stereo partly specified) |  | 43.9 µM |  | 40.2 µM |  | > 100 µM |  | 18.3 µM |  |  |  | 44.7 µM |  | > 100 µM |  |  | 54 | 34.9 | 54 |  |
| CC(C)CC(Nc1c(O)ccc2ccccc12)C(=O)O (stereo unspecified) |  | > 100 µM |  | 50.3 µM |  | > 100 µM |  | 35.8 µM |  | > 100 µM |  | > 100 µM |  | > 100 µM |  | 58.3 |  |  |  |  |
| CC(=O)[CH-]C(=O)c1ccccc1.CC(=O)[CH-]C(=O)c1ccccc1.Cl.[O-]c1ccccn1.[O-]c1ccccn1.[Ti+4] | > 100 µM | > 100 µM | > 100 µM | > 100 µM | > 100 | > 100 µM |  |  |  |  | > 100 | > 100 µM | > 100 | > 100 µM | > 100 | > 100 |  |  | > 100 | > 100 |
| O=S1(=O)CCCS(=O)(=O)C(c2ccccc2)=C1c1ccccc1 |  | > 100 µM |  | > 100 µM |  | > 100 µM |  |  |  |  |  | > 100 µM |  | > 100 µM |  | > 100 | > 100 |  | 72.1 |  |
| Cc1cc2nc3cc(C)c(N)cc3[n+](-c3ccccc3)c2cc1N | 6.26 µM | > 100 µM | 1.85 µM | 12 µM | 2.59 | > 100 µM | 17.5 | > 100 µM | 1.8 | 19.9 µM | 3.57 | 19.7 µM | 4.25 | > 100 µM | 2.48 | > 100 |  |  |  |  |
| Cc1ccc(-c2cc(=O)c3cc(C)c(C)c(C(=O)O)c3o2)cc1N |  | > 100 µM |  | > 100 µM |  | > 100 µM |  | > 100 µM |  |  |  | > 100 µM |  | > 100 µM |  | > 100 | > 100 |  | > 100 |  |
| COc1cc(N2CCN(C(C)C)CC2)ccc1Nc1nc(Nc2cccc(F)c2C(=O)O)c2cc[nH]c2n1 | > 25 µM | > 25 µM | > 25 µM | > 25 µM | > 25 | > 25 µM | > 25 | > 25 µM | > 25 | > 25 µM | > 25 | > 25 µM | > 25 | > 25 µM | > 25 | > 25 |  |  |  |  |
| CN1CCN(Cc2ccc(NC(=O)c3cncc(C#Cc4cncc5nccnc45)c3)cc2C(F)(F)F)CC1 | 5.31 µM | 12.5 µM | 1.48 µM | 6.27 µM | 5.04 | 11.5 µM | 2.21 | 7.47 µM | 5.61 | 14.9 µM | 2.21 | 8.46 µM | 1.86 | 10.6 µM | > 50 | > 50 |  |  |  |  |
| CN(C)CC(C(=O)Cc1ccccc1)c1ccccc1 (stereo unspecified) | 2.18 µM | 4.51 µM | 1.79 µM | 4.25 µM | 2.72 | 11.5 µM | 2.39 | 4.86 µM | 1.11 | 4.91 µM | 4.24 | 14.8 µM | 0.444 | 3.17 µM | 17 | 40.5 |  |  |  |  |
| COc1cc2ncnc(Nc3ccc4c(cnn4Cc4ccccc4)c3)c2cc1OC | 16.7 µM | > 25 µM | > 25 µM | > 25 µM | > 25 | > 25 µM | 8.92 | > 25 µM | 2.16 | > 25 µM | > 25 | > 25 µM | 11.2 | > 25 µM | 0.0796 | > 25 |  |  |  |  |

— PubChem BioAssay (NCI)
